Assay results reported in patent US11884671B2, “Purinone compounds and their use in treating cancer” (ASTRAZENECA AB, priority 2018, dated 2024).

Key:
TTK = TTK (Homo sapiens (Human), UniProt P33981); experiment: TTK enzyme assay (LanthaScreen Eu Kinase Binding); conditions: arithmetic mean of two or more experiments
Method: The inhibitory activity of compounds against TTK was determined in a LanthaScreen® Eu Kinase Binding assay run by ThermoFisher Scientific as part of their SelectScreen® Biochemical Kinase Profiling Service. The LanthaScreen® Eu Kinase Binding assay format uses binding of an Alexa Fluor® conjugate or “tracer” to a kinase, which is detected by addition of a Eu-labeled anti-tag antibody. […] The degree of FRET measured in the assay is used to determine the binding of a compound.
(§1) 10 point three-fold dilution compound concentration-response curves, with a top concentration of 10 μM were generated from 10 mM stocks of compound solubilised in DMSO. All assays were performed in white, low volume Greiner 384-well plates (cat. #784207, Greiner), in a total reaction volume of 16 μL and 1% (v/v) final DMSO concentration. […] Plates were then read using a fluorescence plate reader. IC50 values were calculated using XLfit software (IDBS Ltd, Surrey, UK), with the curve fit to model number 205 (sigmoidal dose-response model).

AURKB (Aurora B) = AURKB (Aurora B) (Homo sapiens (Human), UniProt Q96GD4); experiment: Aurora-B enzyme assay (Z'-LYTE); format: biochemical; conditions: 75 μM ATP; arithmetic mean of two or more experiments
AURKB (Aurora B), sequence (Q96GD4 whole entry): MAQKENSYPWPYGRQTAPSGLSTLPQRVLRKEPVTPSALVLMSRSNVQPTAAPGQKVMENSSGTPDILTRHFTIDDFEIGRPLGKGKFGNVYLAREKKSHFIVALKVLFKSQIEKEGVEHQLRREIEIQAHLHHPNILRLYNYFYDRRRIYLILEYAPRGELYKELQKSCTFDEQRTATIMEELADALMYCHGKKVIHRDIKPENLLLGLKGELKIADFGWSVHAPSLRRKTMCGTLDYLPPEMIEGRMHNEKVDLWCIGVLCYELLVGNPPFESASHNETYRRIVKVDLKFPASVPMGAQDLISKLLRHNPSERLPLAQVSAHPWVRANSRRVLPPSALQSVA
Method: (§2) The inhibitory activity of compounds against AURKA, AURKB, JAK1, JAK2 and JAK3 was determined in Z′-LYTE® assays run by ThermoFisher Scientific as part of their SelectScreen® Biochemical Kinase Profiling Service. The Z′-LYTE® biochemical assay format employs a fluorescence-based, coupled-enzyme format and is based on the differential sensitivity of phosphorylated and non-phosphorylated peptides to proteolytic cleavage. The peptide substrate is labeled with two fluorophores—one at each end—that make up a FRET pair. In the primary reaction, the kinase transfers the gamma-phosphate of ATP to a single tyrosine, serine or threonine residue in a synthetic FRET-peptide. In the secondary reaction, a site-specific protease recognises and cleaves non-phosphorylated FRET-peptides. Phosphorylation of FRET-peptides suppresses cleavage by the Development Reagent. Cleavage disrupts FRET between the donor (i.e., coumarin) and acceptor (i.e., fluorescein) fluorophores on the FRET-peptide, whereas uncleaved, phosphorylated FRET-peptides maintain FRET. A ratiometric method, which calculates the ratio (the Emission Ratio) of donor emission to acceptor emission after excitation of the donor fluorophore at 400 nm, is used to quantitate reaction progress. Both cleaved and uncleaved FRET-peptides contribute to the fluorescence signals and therefore to the Emission Ratio. The extent of phosphorylation of the FRET-peptide can be calculated from the Emission Ratio.
as §1, with “black, non-binding,” for “white,”, “Corning” for “Greiner”, “#4514, Corning),” for “#784207, Greiner),”, “10” for “16”, “The kinase reaction was” for “Plates were”, “quenched by the addition of 5 μL of Development Reagent (ThermoFisher Scientific proprietary). […]” for “read using a fluorescence plate reader.”
Aurora B (AurB): The 2×AURKB (Aurora B)/Ser/Thr 01 (ThermoFisher Scientific proprietary) mixture was prepared in 50 mM HEPES pH 7.5, 0.01% BRIJ-35, 10 mM MgCl2, 1 mM EGTA. […] After the 1 hour Kinase Reaction incubation, 5 μL of a 1:4096 dilution of Development Reagent was added.

JAK2 = JAK2 (Homo sapiens (Human), UniProt O60674); experiment: JAK2 enzyme assay (Z'-LYTE); format: biochemical; conditions: 25 μM ATP; arithmetic mean of two or more experiments
JAK2, sequence (O60674 whole entry): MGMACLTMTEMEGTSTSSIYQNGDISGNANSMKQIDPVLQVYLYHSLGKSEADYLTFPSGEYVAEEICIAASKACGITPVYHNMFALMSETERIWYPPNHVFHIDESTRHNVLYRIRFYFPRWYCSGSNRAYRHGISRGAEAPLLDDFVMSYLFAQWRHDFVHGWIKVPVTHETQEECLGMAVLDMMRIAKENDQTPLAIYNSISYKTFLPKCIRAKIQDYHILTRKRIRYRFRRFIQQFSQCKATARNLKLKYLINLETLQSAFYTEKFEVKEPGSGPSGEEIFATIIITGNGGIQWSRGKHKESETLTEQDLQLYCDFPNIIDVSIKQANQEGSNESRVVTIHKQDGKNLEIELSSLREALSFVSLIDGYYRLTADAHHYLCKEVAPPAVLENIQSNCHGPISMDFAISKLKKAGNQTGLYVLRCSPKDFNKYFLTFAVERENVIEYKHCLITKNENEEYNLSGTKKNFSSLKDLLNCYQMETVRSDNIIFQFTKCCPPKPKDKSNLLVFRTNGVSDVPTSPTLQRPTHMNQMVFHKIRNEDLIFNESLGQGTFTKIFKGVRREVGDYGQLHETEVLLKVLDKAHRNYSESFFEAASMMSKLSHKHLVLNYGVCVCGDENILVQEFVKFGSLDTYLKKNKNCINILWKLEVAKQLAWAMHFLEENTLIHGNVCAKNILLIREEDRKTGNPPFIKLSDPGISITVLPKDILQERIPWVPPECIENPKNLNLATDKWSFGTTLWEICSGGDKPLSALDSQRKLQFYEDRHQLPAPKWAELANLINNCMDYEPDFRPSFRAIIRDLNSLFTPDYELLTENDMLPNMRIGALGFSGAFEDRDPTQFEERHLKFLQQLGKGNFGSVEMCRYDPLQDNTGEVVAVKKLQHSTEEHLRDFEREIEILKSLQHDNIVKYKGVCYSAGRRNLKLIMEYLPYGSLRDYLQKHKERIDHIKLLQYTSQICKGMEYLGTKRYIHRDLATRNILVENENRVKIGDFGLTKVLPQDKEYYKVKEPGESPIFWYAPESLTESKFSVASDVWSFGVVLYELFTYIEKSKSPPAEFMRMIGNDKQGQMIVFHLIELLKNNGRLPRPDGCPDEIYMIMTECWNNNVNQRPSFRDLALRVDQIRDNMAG
Method: as §2
as §1, with “black, non-binding,” for “white,”, “Corning” for “Greiner”, “#4514, Corning),” for “#784207, Greiner),”, “10” for “16”, “The kinase reaction was” for “Plates were”, “quenched by the addition of 5 μL of Development Reagent (ThermoFisher Scientific proprietary). […]” for “read using a fluorescence plate reader.”
JAK2: The 2×JAK2/Tyr 06 (ThermoFisher Scientific proprietary) mixture was prepared in 50 mM HEPES pH 7.5, 0.01% BRIJ-35, 10 mM MgCl2, 1 mM EGTA. […] After the 1 hour Kinase Reaction incubation, 5 μL of a 1:128 dilution of Development Reagent was added.

JAK3 = JAK3 (Homo sapiens (Human), UniProt P52333); experiment: JAK3 enzyme assay (Z'-LYTE); format: biochemical; conditions: 10 μM ATP; arithmetic mean of two or more experiments
JAK3, sequence (P52333 whole entry): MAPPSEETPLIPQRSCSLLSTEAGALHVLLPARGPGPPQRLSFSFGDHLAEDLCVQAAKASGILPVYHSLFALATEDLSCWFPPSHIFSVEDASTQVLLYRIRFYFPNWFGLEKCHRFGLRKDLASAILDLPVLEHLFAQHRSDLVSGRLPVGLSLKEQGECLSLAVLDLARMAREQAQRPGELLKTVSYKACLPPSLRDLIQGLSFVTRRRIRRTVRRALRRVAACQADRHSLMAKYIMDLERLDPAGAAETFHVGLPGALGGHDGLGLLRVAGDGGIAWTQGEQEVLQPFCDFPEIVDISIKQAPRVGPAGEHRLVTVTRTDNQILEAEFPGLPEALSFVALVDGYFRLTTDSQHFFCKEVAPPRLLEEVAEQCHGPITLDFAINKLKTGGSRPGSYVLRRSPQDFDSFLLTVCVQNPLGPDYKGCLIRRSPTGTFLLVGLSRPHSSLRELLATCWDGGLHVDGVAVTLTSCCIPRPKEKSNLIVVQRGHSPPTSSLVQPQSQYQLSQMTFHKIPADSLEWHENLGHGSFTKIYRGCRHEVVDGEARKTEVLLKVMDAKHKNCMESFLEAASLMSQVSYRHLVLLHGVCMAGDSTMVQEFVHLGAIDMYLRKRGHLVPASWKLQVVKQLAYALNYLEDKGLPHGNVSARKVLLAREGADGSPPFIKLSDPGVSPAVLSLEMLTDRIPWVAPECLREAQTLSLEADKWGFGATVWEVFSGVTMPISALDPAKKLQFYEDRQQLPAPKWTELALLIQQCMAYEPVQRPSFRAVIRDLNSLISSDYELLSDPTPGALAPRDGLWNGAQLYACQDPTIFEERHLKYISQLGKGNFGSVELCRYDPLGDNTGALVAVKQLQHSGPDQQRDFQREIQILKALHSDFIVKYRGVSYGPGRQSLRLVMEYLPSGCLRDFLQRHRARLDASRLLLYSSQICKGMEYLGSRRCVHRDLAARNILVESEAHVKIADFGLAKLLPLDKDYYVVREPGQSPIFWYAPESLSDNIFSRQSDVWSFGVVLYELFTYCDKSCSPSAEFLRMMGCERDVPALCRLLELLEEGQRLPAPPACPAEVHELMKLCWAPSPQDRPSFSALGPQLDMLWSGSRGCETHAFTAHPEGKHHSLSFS
Method: as §2
as §1, with “black, non-binding,” for “white,”, “Corning” for “Greiner”, “#4514, Corning),” for “#784207, Greiner),”, “10” for “16”, “The kinase reaction was” for “Plates were”, “quenched by the addition of 5 μL of Development Reagent (ThermoFisher Scientific proprietary). […]” for “read using a fluorescence plate reader.”
JAK3: The 2×JAK3/Tyr 06 (ThermoFisher Scientific proprietary) mixture was prepared in 50 mM HEPES pH 7.5. 0.01% BRIJ-35, 10 mM MgCl2, 1 mM EGTA. […] After the 1 hour Kinase Reaction incubation, 5 μL of a 1:128 dilution of Development Reagent was added.

AURKA (Aurora A) = AURKA (Aurora A) (Homo sapiens (Human), UniProt O14965); experiment: Aurora-A enzyme assay (Z'-LYTE); format: biochemical; conditions: 10 μM ATP; arithmetic mean of two or more experiments
AURKA (Aurora A), sequence (O14965 whole entry): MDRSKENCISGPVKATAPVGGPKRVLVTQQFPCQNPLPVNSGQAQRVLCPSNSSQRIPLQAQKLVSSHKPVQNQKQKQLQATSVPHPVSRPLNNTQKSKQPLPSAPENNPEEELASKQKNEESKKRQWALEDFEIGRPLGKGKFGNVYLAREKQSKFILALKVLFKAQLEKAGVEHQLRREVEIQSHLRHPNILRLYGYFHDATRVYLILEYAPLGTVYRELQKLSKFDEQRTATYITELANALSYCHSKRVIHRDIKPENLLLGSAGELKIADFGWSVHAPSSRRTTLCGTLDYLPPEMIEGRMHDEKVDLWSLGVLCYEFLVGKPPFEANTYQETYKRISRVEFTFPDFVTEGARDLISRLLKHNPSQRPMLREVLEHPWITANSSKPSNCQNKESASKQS
Method: as §2
as §1, with “black, non-binding,” for “white,”, “Corning” for “Greiner”, “#4514, Corning),” for “#784207, Greiner),”, “10” for “16”, “The kinase reaction was” for “Plates were”, “quenched by the addition of 5 μL of Development Reagent (ThermoFisher Scientific proprietary). […]” for “read using a fluorescence plate reader.”
Aurora A (AurA): The 2×AURKA (Aurora A)/Ser/Thr 01 (ThermoFisher Scientific proprietary) mixture was prepared in 50 mM HEPES pH 7.5, 0.01% BRIJ-35, 10 mM MgCl2, 1 mM EGTA. […] After the 1 hour Kinase Reaction incubation, 5 μL of a 1:4096 dilution of Development Reagent was added.

JAK1 = JAK1 (Homo sapiens (Human), UniProt P23458); experiment: JAK1 enzyme assay (Z'-LYTE); format: biochemical; conditions: 75 μM ATP; arithmetic mean of two or more experiments
JAK1, sequence (P23458 whole entry): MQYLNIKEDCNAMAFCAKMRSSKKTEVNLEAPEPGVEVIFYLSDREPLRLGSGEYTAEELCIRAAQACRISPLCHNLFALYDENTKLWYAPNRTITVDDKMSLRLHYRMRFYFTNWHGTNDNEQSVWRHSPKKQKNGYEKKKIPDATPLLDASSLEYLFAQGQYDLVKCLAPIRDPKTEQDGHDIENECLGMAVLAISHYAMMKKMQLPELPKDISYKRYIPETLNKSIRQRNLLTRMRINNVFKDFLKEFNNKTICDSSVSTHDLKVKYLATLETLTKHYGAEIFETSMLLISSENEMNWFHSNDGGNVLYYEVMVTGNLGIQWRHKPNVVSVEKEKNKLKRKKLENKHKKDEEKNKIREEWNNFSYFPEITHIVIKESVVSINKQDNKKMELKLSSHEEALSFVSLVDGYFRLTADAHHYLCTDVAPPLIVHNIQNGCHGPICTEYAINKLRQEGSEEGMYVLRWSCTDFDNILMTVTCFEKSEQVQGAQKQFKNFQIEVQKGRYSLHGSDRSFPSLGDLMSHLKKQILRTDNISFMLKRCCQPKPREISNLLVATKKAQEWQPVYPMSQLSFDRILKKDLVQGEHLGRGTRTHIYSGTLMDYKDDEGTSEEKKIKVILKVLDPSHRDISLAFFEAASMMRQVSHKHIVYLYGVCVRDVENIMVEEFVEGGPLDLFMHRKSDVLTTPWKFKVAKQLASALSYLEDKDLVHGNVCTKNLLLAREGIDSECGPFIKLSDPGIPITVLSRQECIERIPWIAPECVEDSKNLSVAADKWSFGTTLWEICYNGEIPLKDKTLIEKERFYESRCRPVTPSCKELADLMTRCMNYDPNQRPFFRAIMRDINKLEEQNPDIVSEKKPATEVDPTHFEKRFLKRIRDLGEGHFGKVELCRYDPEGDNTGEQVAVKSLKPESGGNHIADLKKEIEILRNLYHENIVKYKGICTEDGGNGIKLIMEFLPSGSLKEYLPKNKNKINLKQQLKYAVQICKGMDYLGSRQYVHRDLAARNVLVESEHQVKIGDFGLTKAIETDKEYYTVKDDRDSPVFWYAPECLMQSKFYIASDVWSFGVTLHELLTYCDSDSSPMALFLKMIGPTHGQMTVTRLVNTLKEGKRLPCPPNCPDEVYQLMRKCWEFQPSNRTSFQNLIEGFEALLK
Method: as §2
as §1, with “black, non-binding,” for “white,”, “Corning” for “Greiner”, “#4514, Corning),” for “#784207, Greiner),”, “10” for “16”, “The kinase reaction was” for “Plates were”, “quenched by the addition of 5 μL of Development Reagent (ThermoFisher Scientific proprietary). […]” for “read using a fluorescence plate reader.”
JAK1: The 2×JAK/Tyr 06 (ThermoFisher Scientific proprietary) mixture was prepared in 50 mM HEPES pH 6.5, 0.01% BRIJ-35, 10 mM MgCl2, 1 mM EGTA, 0.02% NaN3. […] After the 1 hour Kinase Reaction incubation, 5 μL of a 1:128 dilution of Development Reagent was added.

DNAPK = DNAPK (Homo sapiens (Human), UniProt P78527); experiment: DNAPK cellular potency assay (DNA-PK cell), pS2056-DNAPK ELISA in irradiated A549 cells; format: cell-based; conditions: 8 Gy radiation, arithmetic mean of two or more experiments, read-out: DNA-PK cell pIC50 (converted)
Method: The DNAPK cell ELISA assay was performed in the A549 cell line. A549 cells were cultured in cell media composed of MEM-F12 (Minimum Essential Medium F12 Sigma #D6421), 10% (v/v) Foetal Calf Serum and 1% (v/v) 200 mM L-Glutamine. […] The following day the Greiner ELISA plates were washed 3× with PBS-T and blocked with 3% BSA/PBS for 2 h, before a further 3× wash with PBS-T.
The cell plates were then incubated for 1 h at 37° C. before receiving a radiation dose of 8 Gy (XRAD 320, table height 65). The cells were incubated for a further 1 h before removal of cell media. […] Cell lysates ([…]) were transferred to the DNAPK antibody-coated ELISA plates using a CyBio Felix liquid handling platform, and ELISA plates were incubated at 4° C. overnight.
The following day, ELISA plates were washed 3× with PBS-T and dispensed with in-house pS2056-DNAPK antibody (0.5 μg/mL in 3% BSA/PBS) at 20 ul/well.
The fluorescence intensity of individual wells was determined using a PerkinElmer EnVision plate reader.
Data was analysed and IC50 values were calculated using Genedata Screener® software (Genedata, Inc., Basel, Switzerland).

Discrete PK Dog = conditions: beagle, iv, 0.5 mg/kg
Discrete PK Rat = format: in vivo, han wistar rats; conditions: Han Wistar, plasma, iv, read-out: volume of distribution (V)

TTK, sequence (P33981 whole entry): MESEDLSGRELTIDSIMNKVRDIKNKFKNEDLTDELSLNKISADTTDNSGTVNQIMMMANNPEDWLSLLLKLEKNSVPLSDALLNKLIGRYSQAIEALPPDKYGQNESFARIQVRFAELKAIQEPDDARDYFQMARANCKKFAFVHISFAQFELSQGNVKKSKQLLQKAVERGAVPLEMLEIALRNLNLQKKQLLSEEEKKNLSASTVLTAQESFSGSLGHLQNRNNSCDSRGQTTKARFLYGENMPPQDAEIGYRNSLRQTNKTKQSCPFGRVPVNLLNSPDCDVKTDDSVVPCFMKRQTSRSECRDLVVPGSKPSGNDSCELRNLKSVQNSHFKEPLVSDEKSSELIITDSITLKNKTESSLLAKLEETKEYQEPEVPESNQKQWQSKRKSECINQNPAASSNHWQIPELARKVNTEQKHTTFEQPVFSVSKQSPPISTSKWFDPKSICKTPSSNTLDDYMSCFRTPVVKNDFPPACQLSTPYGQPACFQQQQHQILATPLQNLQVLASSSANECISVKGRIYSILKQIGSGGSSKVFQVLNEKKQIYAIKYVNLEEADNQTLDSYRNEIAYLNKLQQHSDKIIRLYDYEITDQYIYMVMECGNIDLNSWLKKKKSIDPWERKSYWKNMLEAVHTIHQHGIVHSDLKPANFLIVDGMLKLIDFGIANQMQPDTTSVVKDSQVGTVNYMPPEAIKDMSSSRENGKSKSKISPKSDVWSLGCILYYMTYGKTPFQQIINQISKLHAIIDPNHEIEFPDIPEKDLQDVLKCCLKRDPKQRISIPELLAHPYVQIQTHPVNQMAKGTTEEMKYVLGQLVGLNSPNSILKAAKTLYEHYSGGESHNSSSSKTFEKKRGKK

SMILES	TTK enz pIC50 (TTK)	AurB enz pIC50 (AURKB (Aurora B))	JAK2 enz pIC50 (JAK2)	JAK3 enz pIC50 (JAK3)	AurA enz pIC50 (AURKA (Aurora A))	JAK1 enz pIC50 (JAK1)	IC50 (DNAPK) [nM]	other results
Cc1cc2nnccc2cc1Nc1ncc2c(n1)n(C1CCOCC1)c(=O)n2C [Example 29, 7-methyl-2-((7-methylcinnolin-6-yl)amino)-9-(tetrahydro-2H-pyran-4-yl)-7,9-dihydro-8H-purin-8-one]	6.4	<5	<5	<5	<5	<5		
Cc1cc2ncccc2cc1Nc1ncc2c(n1)n([C@H]1CC[C@@](C)(O)CC1)c(=O)n2C [Example 14, 9-((1s,4s)-4-hydroxy-4-methylcyclohexyl)-7-methyl-2-((7-methylquinolin-6-yl)amino)-7,9-dihydro-8H-purin-8-one]							10	
Cc1cc2ncccc2cc1Nc1ncc2c(n1)n([C@H]1CC[C@](C)(O)CC1)c(=O)n2C [Example 15, 9-((1r,4r)-4-hydroxy-4-methylcyclohexyl)-7-methyl-2-((7-methylquinolin-6-yl)amino)-7,9-dihydro-8H-purin-8-one]							15.8	
Cc1cc2ncccc2cc1Nc1ncc2c(n1)n(C1CCOCC1)c(=O)n2C [Example 30, 7-methyl-2-((7-methylquinolin-6-yl)amino)-9-(tetrahydro-2H-pyran-4-yl)-7,9-dihydro-8H-purin-8-one]	6.4	<5	<5	<5	<5	<5		
Cc1cc2ncccc2cc1Nc1ncc2c(n1)n([C@@H]1CNC[C@H]1F)c(=O)n2C [Example 52, 9-((3R,4R)-4-fluoropyrrolidin-3-yl)-7-methyl-2-((7-methylquinolin-6-yl)amino)-7,9-dihydro-8H-purin-8-one]								Vd (Discrete PK Dog; in vivo): 5.4 L/kg; Vd (Discrete PK Rat): 1.65 L/kg
Cc1cc2nnccc2cc1Nc1ncc2c(n1)n([C@H]1CC[C@](C)(O)CC1)c(=O)n2C [Example 17, 9-((1r,4r)-4-hydroxy-4-methylcyclohexyl)-7-methyl-2-((7-methylcinnolin-6-yl)amino)-7,9-dihydro-8H-purin-8-one]							100	
Cc1cc2ncccc2cc1Nc1ncc2c(n1)n(C1CCN(C)CC1)c(=O)n2C [Example 44, 7-methyl-9-(1-methylpiperidin-4-yl)-2-((7-methylquinolin-6-yl)amino)-7,9-dihydro-8H-purin-8-one]								Vd (Discrete PK Dog; plasma): 7.8 L/kg; Vd (Discrete PK Rat): 3.4 L/kg
Cc1cc2nnccc2cc1Nc1ncc2c(n1)n([C@H]1CC[C@@](C)(O)CC1)c(=O)n2C [Example 16, 9-((1s,4s)-4-hydroxy-4-methylcyclohexyl)-7-methyl-2-((7-methylcinnolin-6-yl)amino)-7,9-dihydro-8H-purin-8-one]							15.8	

More lines, main results first:

TTK enz pIC50 (TTK)	AurB enz pIC50 (AURKB (Aurora B))	JAK2 enz pIC50 (JAK2)	JAK3 enz pIC50 (JAK3)	AurA enz pIC50 (AURKA (Aurora A))	JAK1 enz pIC50 (JAK1)	IC50 (DNAPK) [nM]	SMILES	other results
<5.1	<5	<5	<5	<5	<5		Cc1cc2ncccc2cc1Nc1ncc2c(n1)n([C@@H]1CCN(C)C1)c(=O)n2C [Example 41, (R)-7-methyl-9-(1-methylpyrrolidin-3-yl)-2-((7-methylquinolin-6-yl)amino)-7,9-dihydro-8H-purin-8-one]	
<5.1	<5	<5	<5	<5	<5		Cc1cc2ncccc2cc1Nc1ncc2c(n1)n([C@H]1CCN(C)C1)c(=O)n2C [Example 42, (S)-7-methyl-9-(1-methylpyrrolidin-3-yl)-2-((7-methylquinolin-6-yl)amino)-7,9-dihydro-8H-purin-8-one]	
<5	<5	<5	<5	<5	<5		Cc1cc2nnccc2cc1Nc1ncc2c(n1)n(C1CCN(C)CC1)c(=O)n2C [Example 43, 7-methyl-2-((7-methylcinnolin-6-yl)amino)-9-(1-methylpiperidin-4-yl)-7,9-dihydro-8H-purin-8-one]	
